Experimental data: patent US20220265785A1, “COMPOSITION FOR PREVENTING OR TREATING URIC ACID-RELATED DISEASE” (GUANGZHOU CENTURY CLINICAL RESEARCH CO., LTD, priority 2019, published 2022)

Assays:
[1] = test system: patient with hyperuricemia accompanied by gout; assay: Lysozyme enteric tablets in patient with hyperuricemia accompanied by gout; assay type: in vivo, human; settings: same patient before lysozyme; serum uric acid remained at 700 μmol/L or more
Description: The administration of lysozyme enteric tablets (produced by Xiangbei Welman Pharmaceutical Co., Ltd.) by two patients with hyperuricemia is described below to specifically illustrate the present disclosure.
A person suffering from gout had obvious redness, swelling and pain in the ankles and toes, and difficulty in walking. […] The lysozyme enteric tablets were tried daily (once in the morning, once at noon and once in the evening, 2 g each time). One month later, they felt that the frequency of pain episodes decreased and the difficulty in walking was alleviated.

[2] = test system: hyperuricemia model animals; assay: Effect on serum uric acid level of hyperuricemia model rats (potassium oxonate + uric acid); assay type: in vivo, SD rats; settings: for Serum uric acid content, Day 0: Day 0, before modeling and before drug, 8 rats; for Serum uric acid content, Day 0 / Serum uric acid content, Day 12 / Serum uric acid content, Day 18: X ± SD; for Serum uric acid content, Day 12: Day 12, after modeling, before drug (dosing from D13)
Description: (§1) Lysozyme granules, enteric lysozyme granules, and benzbromarone fine granules. Each test drug was moistened and uniformly mixed with 0.5% sodium carboxymethylcellulose for easy administration.
(§2) SD rats. The rats had free access to drinking water and food, and they were adaptively reared for one week before test.
(§3) Except for rats in the blank group, the other rats were modeled for 12 days, and the serum uric acid level of each rat was detected. Then the rats were evenly divided into groups according to the uric acid level of each rat, with 8 animals in each group.
(§4) Lysozyme groups and enteric lysozyme groups: High and low doses of the lysozyme granules and enteric lysozyme granules were respectively taken orally, and the dosages were 10 mg/kg and 30 mg/kg based on the active ingredient, once a day.
(§5) Benzbromarone group: The benzbromarone fine granules were taken orally at a dose of 30 mg/kg based on the active ingredient, once a day.
(§6) The test was carried out for a total of 18 days.
(§7) On day 1 of the test, except for the animals in the blank group, the animals in the other groups were orally given a modeling agent (1.5 g/kg potassium oxonate +0.3 g/kg uric acid, dissolved in 0.5% sodium carboxymethylcellulose) once to start modeling, and thereafter, the same amount of the modeling agent was administrated at the same time every day. 0.5 ml of blood was taken from the orbit before the start of the test (DO) and on day 12
(§8) (D12) of the test, respectively, and centrifuged, then the serum was taken and tested for serum uric acid level using a uric acid assay kit and a microplate reader; in addition, 0.5 g of fresh midsection rat feces were taken, diluted and uniformly mixed with four times volume of phosphate buffer, centrifuged, ultrasonically mixed until uniform, incubated at 100° C. for 40 minutes, cooled and then centrifuged, and the supernatant was taken and tested for fecal uric acid level using the uric acid assay kit and the microplate reader.
(§9) Thereafter, the rats were grouped according to the serum uric acid value of each rat. From day 13 (D13), each rat was given the test drug intragastrically every day, as well as the modeling agent every day. The interval between the administration of the test drug and the administration of the modeling agent was more than 1 hour. The drug administration was stopped after day 18 (D18) of the test, and the serum uric acid levels and fecal uric acid levels were determined according to the previous method.

[3] = test system: hyperuricemia model animals; assay: Effect on fecal uric acid level of hyperuricemia model rats (potassium oxonate + uric acid); assay type: in vivo, SD rats; settings: for Fecal uric acid content, Day 0: Day 0, before modeling and before drug; for Fecal uric acid content, Day 0 / Fecal uric acid content, Day 12 / Fecal uric acid content, Day 18: X ± SD; for Fecal uric acid content, Day 12: Day 12, after modeling, before drug; for Fecal uric acid levels compared with the model control group: day 18
Description: as §1, §2, §3, §4, §5, §6, §7, §8, §9

[4] = 10 mg/kg oral once a day D13-D18
[5] = 30 mg/kg oral once a day D13-D18

Molecule: Oc1ncnc2[nH]ncc12 [allopurinol]
- Effects of past use to relieve pain and reduce uric acid [1]: not good

Molecule: Lysozyme: Homemade granules: lysozyme with a potency of more than 20000 U/mg mixed with the same amount of starch, granulated with water
- Serum uric acid content, Day 0 ([2]; 10 mg/kg group): 43.66 ± 4.16 µmol/L
- Serum uric acid content, Day 12 ([2]; 10 mg/kg group): 122.12 ± 10.27 µmol/L
- Serum uric acid content, Day 18 [2, 4]: 161.97 ± 22.11 µmol/L
- Serum uric acid content, Day 0 ([2]; 30 mg/kg group): 40.49 ± 3.33 µmol/L
- Serum uric acid content, Day 12 ([2]; 30 mg/kg group): 120.79 ± 17.64 µmol/L
- Serum uric acid content, Day 18 [2, 5]: 149.76 ± 20.12 µmol/L
- Serum uric acid levels compared with the model control group ([2]; day 18): significantly lower
- Fecal uric acid content, Day 0 ([3]; 10 mg/kg group): 0.98 ± 0.13 mmol/L
- Fecal uric acid content, Day 12 ([3]; 10 mg/kg group): 1.26 ± 0.24 mmol/L
- Fecal uric acid content, Day 18 [3, 4]: 1.84 ± 0.20 mmol/L
- Fecal uric acid content, Day 0 ([3]; 30 mg/kg group): 1.15 ± 0.16 mmol/L
- Fecal uric acid content, Day 12 ([3]; 30 mg/kg group): 1.24 ± 0.20 mmol/L
- Fecal uric acid content, Day 18 [3, 5]: 1.98 ± 0.20 mmol/L
- Fecal uric acid levels compared with the model control group [3]: significantly higher

Molecule: CC(C)Cc1ccc(C(C)C(=O)O)cc1 (centres unmarked) [ibuprofen]
- Effects of past use to relieve pain and reduce uric acid [1]: not good

Molecule: CCc1oc2ccccc2c1C(=O)c1cc(Br)c(O)c(Br)c1 [Benzbromarone, reference compound]
- Serum uric acid content, Day 0 ([2]; 30 mg/kg group): 41.02 ± 3.71 µmol/L
- Serum uric acid content, Day 12 ([2]; 30 mg/kg group): 117.14 ± 17.74 µmol/L
- Serum uric acid content, Day 18 [2, 5]: 153.45 ± 26.17 µmol/L
- Fecal uric acid content, Day 0 ([3]; 30 mg/kg group): 1.12 ± 0.17 mmol/L
- Fecal uric acid content, Day 12 ([3]; 30 mg/kg group): 1.25 ± 0.31 mmol/L
- Fecal uric acid content, Day 18 [3, 5]: 1.34 ± 0.31 mmol/L
- Fecal uric acid levels compared with the model control group [3]: did not increase significantly
